Values belong to the compound of their own block, whether it stands above or below them. Where a SMILES comes first, the peptide text is derived from it.
What was measured:
[1] = biological target: T1, Type-2 angiotensin II receptor (Rattus norvegicus, UniProt P35351); assay: Inhibition of rat AT2 receptor
T1 sequence (P35351 whole entry): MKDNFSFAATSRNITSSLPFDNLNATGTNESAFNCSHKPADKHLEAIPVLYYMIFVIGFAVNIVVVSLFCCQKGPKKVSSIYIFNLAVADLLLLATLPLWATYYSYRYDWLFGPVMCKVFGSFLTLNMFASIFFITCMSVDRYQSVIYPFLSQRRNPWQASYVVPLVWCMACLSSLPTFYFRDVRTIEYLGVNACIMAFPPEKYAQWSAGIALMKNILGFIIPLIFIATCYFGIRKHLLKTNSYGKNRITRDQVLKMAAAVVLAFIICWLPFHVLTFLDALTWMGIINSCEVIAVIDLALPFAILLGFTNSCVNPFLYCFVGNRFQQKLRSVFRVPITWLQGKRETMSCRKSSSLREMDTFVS

[2] = biological target: T2, Type-1 angiotensin II receptor A (Rattus norvegicus, UniProt P25095); assay: Inhibition of rat AT1 receptor
T2 sequence (P25095 whole entry): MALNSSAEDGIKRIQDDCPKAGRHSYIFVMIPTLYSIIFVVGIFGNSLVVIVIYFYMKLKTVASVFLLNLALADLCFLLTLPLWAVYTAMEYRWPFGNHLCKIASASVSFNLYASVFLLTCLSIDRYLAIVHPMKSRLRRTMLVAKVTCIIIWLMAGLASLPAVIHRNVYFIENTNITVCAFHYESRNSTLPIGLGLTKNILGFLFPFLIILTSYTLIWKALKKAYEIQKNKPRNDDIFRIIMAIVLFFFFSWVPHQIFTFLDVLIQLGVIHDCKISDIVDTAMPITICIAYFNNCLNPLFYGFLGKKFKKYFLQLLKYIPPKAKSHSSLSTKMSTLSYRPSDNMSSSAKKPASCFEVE

[3] = biological target: T2, Type-1 angiotensin II receptor A; assay: Displacement of [125I]Ang II from AT1 receptor in rat liver membranes; type: cell membranes
[4] = Displacement of [125I]Ang II from AT2 receptor in pig uterus membranes; type: cell membranes, Sus scrofa
[5] = biological target: T3, Type-1 angiotensin II receptor (Homo sapiens, UniProt P30556); assay: Inhibition of human AT1 receptor
T3 sequence (P30556 whole entry): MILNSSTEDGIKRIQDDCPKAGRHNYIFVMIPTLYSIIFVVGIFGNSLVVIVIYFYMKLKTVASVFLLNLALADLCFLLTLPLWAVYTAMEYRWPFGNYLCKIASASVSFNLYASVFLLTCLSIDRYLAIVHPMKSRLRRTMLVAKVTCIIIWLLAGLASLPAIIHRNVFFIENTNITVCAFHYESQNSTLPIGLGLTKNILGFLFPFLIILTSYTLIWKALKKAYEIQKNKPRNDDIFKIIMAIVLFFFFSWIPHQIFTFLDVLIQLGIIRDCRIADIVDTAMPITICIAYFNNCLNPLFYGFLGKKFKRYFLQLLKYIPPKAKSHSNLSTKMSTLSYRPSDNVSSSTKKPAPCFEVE

Proto-oncogene Mas [6] = biological target: T4, Proto-oncogene Mas (Homo sapiens, UniProt P04201); assay: Agonist activity at N-terminal c-Myc tagged human MasR expressed in HEK293T cells assessed as reduction in forskolin-induced cAMP accumulation; type: functional, cell-based
T4 sequence (P04201 whole entry): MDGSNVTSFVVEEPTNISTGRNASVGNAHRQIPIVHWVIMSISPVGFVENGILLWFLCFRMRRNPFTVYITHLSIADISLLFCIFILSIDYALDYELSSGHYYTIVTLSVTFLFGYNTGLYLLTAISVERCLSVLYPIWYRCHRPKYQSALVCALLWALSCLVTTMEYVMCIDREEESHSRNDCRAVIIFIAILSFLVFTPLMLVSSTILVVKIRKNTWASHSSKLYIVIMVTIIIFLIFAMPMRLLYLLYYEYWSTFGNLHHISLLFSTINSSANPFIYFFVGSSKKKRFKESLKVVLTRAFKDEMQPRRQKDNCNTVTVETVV

Proto-oncogene Mas [7] = biological target: T4, Proto-oncogene Mas; assay: Antagonist activity at N-terminal c-Myc tagged human MasR expressed in HEK293T cells by cAMP accumulation based assay; type: functional, cell-based
[8] = biological target: T2, Type-1 angiotensin II receptor A; assay: Displacement of [125I]Ang II from AT1 receptor in rat SMC membranes incubated for 60 mins by gamma counting method; type: cell membranes

Structure (SMILES): Cc1cc(Cn2cnc3c2C[C@@H](C(=O)O)N(C(=O)C(c2ccccc2)c2ccccc2)C3)ccc1N(C)C
Ki [5]: 12 nM

Structure (SMILES): CCNC(=O)NS(=O)(=O)c1sc(CC(C)C)cc1-c1ccc(Cn2c(-c3ccccc3)nc(OC)c2C=O)cc1
IC50 (Proto-oncogene Mas [6]): 21 nM

Structure (SMILES): COc1ccc2c(c1OCc1ccccc1)C[C@H](C(=O)O)N(C(=O)C(c1ccccc1)c1ccccc1)C2
IC50 [5]: 1100 nM

Structure (SMILES): CC[C@H](C)[C@H](NC(=O)[C@H](Cc1ccc(O)cc1)NC(=O)[C@@H](NC(=O)[C@H](CCCNC(=N)N)NC(=O)[C@@H](N)CC(=O)O)C(C)C)C(=O)N[C@@H](Cc1cnc[nH]1)C(=O)N[C@H](C)C(=O)O (HELM PEPTIDE1{D.R.V.Y.I.H.[dA]}$$$$V2.0)
IC50 (Proto-oncogene Mas [7]): 0.3 nM

Structure (SMILES): CC[C@H](C)[C@H](NC(=O)[C@@H]1CCCN1C(=O)[C@H](Cc1c[nH]cn1)NC(=O)[C@H](CCCCNC(=O)[C@H](CCCN=C(N)N)NC(=O)OCc1ccccc1)NC(=O)[C@H](Cc1ccc(O)cc1)NC(=O)c1cccnc1)C(=O)O (HELM PEPTIDE1{[O=C(c1cccnc1)[*:2]].Y.K.H.P.I}|PEPTIDE2{[O=C(OCc1ccccc1)[*:2]].R}$PEPTIDE1,PEPTIDE2,3:R3-2:R2$$$V2.0)
Ki [8]: 1700 nM

Results, then the compound that gave them:

IC50 [1]: 75.2 nM
IC50 [2]: 2.9 mM
Structure (SMILES): COc1ccc2c(c1OCc1ccccc1)CC(C(=O)O)N(C(=O)C(c1ccccc1)c1ccccc1)C2 (stereo not drawn)

Ki [3]: 3.9 nM
Ki [4]: 2.8 nM
Structure (SMILES): CCCCOC(=O)NS(=O)(=O)c1sc(CC(C)C)cc1-c1ccc(Cn2c(CC)nc3c(C)cc(C)nc32)cc1

IC50 [3]: 1.4 nM
IC50 [4]: 101 nM
Structure (SMILES): CCCCOC(=O)NS(=O)(=O)c1ccc(Cc2cccc(OC)c2)cc1-c1ccc(Cn2c(CC)nc3c(C)cc(C)nc32)cc1

Ki [3]: > 10000 nM
Structure (SMILES): CCCCOC(=O)NS(=O)(=O)c1sc(CC(C)C)cc1-c1ccc(Cn2ccnc2)cc1 [BULOXIBUTID]

IC50 [5]: 39 nM
Structure (SMILES): COc1ccc2c(c1OCc1ccccc1)C[C@@H](C(=O)O)N(C(=O)C(c1ccccc1)c1ccccc1)C2 [OLODANRIGAN]

— ChEMBL document CHEMBL4354850, “The Other Angiotensin II Receptor: AT2R as a Therapeutic Target” (J Med Chem, 2020)
